This note sets out measurements from ChEMBL document CHEMBL1909046, “DrugMatrix in vitro pharmacology data”.

Assay [1] in a line: DRUGMATRIX: Glutamate, NMDA, Phencyclidine radioligand binding (ligand: [3H] TCP). Format: cell membranes, Rattus norvegicus, Wistar, Cerebral cortex, Membrane. The conditions noted are these: Not Active = under 50% inhibition at 10 µM.
For assay [2], the target named is T1, B2 bradykinin receptor (Homo sapiens, UniProt P30411). Also: in other assays of this panel Not Active means under 50% inhibition at 10 µM.
T1 sequence (P30411 whole entry): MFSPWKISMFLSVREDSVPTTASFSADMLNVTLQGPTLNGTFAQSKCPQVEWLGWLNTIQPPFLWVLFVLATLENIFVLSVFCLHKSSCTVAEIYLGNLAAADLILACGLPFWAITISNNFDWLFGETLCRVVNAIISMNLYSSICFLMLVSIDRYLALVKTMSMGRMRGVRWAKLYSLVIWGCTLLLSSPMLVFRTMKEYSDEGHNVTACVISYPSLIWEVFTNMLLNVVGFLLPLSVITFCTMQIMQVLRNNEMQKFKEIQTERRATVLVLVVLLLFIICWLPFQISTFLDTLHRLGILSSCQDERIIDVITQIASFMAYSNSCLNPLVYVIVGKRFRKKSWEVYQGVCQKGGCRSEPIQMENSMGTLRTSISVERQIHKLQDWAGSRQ
Format: cell membranes, Membrane. As to conditions: chem-1.

The target in assay [3] is T2, Angiotensin-converting enzyme (Oryctolagus cuniculus, UniProt P12822).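 Also: enzymatic inhibition of angiotensin-converting enzyme measured with FAPGG as the substrate; in other assays of this panel Not Active means under 50% inhibition at 10 µM.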
T2 sequence (P12822 whole entry): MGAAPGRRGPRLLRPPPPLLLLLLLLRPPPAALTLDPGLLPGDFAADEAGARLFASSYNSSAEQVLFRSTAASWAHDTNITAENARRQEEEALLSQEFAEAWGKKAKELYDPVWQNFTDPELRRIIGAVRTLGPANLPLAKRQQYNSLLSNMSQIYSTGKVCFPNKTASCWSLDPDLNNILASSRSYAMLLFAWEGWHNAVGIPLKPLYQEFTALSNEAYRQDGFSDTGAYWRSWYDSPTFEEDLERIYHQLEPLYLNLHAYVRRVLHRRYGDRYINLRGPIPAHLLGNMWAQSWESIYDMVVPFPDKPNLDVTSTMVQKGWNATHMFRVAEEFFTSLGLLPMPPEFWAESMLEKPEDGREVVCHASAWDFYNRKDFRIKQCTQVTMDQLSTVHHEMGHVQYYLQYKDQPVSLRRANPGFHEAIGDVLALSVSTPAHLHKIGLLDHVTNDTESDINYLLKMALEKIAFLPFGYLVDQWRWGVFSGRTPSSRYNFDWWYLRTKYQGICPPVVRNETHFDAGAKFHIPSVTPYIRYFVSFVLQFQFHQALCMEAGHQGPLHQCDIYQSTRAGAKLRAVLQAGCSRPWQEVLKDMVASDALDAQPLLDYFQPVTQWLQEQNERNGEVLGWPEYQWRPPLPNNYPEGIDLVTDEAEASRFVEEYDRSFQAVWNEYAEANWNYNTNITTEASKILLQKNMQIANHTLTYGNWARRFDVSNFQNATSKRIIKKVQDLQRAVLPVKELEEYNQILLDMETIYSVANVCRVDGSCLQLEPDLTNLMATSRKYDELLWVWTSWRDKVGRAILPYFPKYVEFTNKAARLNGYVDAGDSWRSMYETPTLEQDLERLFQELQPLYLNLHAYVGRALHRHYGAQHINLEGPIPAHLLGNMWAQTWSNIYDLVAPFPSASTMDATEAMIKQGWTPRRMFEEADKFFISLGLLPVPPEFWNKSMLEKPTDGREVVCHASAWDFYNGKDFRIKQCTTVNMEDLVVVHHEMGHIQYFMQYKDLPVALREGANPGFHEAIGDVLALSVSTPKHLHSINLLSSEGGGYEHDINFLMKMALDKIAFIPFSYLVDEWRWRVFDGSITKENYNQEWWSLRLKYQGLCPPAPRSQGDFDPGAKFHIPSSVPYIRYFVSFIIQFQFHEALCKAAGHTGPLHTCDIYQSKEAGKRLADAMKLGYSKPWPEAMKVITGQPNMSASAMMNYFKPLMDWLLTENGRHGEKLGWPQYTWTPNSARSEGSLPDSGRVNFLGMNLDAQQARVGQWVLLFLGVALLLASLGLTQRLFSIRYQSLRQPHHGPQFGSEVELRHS
Description: biochemical. Format: tissue-based, Lung.

The target of assay [4] is T3, Neuropeptide Y receptor type 2 (Homo sapiens, UniProt P49146). Also: in other assays of this panel Not Active means under 50% inhibition at 10 µM.
T3 sequence (P49146 whole entry): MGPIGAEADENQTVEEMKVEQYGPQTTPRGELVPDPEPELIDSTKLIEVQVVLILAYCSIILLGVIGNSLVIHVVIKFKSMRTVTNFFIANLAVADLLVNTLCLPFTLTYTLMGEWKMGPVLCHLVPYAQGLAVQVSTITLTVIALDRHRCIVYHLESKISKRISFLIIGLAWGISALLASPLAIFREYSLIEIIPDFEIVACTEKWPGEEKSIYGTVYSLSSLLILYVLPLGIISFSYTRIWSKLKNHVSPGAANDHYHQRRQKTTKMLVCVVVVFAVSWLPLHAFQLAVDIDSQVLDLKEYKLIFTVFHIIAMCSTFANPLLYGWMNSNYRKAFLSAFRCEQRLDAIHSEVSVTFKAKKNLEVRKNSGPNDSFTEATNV
Format: cell membranes, Membrane. The conditions noted are these: kan-ts.

Assay [5] in a line: DRUGMATRIX: Imidazoline I2, Central radioligand binding (ligand: [3H] Idazoxan). Format: cell membranes, Rattus norvegicus, Wistar, Cerebral cortex, Membrane. The conditions noted are these: Not Active = under 50% inhibition at 10 µM.
Assay [6] in a line: DRUGMATRIX: beta-Lactamase enzyme inhibition (substrate: Nitrocefin). On the set-up: species or system Bacillus cereus. As to conditions: Not Active = under 50% inhibition at 10 µM.
Assay [7] can be described thus: DRUGMATRIX: Glutamate, Kainate radioligand binding (ligand: [3H] Kainic acid). Format: cell membranes, Rattus norvegicus, Wistar, Brain, Membrane. The conditions noted are these: Not Active = under 50% inhibition at 10 µM.
The target in assay [8] is T4, Neuropeptide Y receptor type 1 (Homo sapiens, UniProt P25929). Also: in other assays of this panel Not Active means under 50% inhibition at 10 µM.
T4 sequence (P25929 whole entry): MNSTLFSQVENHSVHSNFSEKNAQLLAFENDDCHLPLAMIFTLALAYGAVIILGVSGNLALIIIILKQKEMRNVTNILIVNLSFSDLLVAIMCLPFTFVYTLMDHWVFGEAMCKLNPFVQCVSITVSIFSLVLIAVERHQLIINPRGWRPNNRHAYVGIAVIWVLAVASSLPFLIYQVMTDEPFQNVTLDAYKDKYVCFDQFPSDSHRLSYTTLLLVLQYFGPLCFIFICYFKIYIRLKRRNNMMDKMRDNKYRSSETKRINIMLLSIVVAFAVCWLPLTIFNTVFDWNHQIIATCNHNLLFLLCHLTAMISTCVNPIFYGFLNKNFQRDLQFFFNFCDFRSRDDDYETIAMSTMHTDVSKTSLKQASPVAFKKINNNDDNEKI
Format: cell membranes, Membrane. As to conditions: sk-n-mc.

Usually IC50 stands for the concentration at which inhibition is half-maximal. The term Ki denotes a measure of affinity in units of concentration, obtained from inhibition or displacement. In the case of `Nc1nc(N)c2nc(CNc3ccc(C(=O)N[C@@H](CCC(=O)O)C(=O)O)cc3)cnc2n1` [AMINOPTERIN], the IC50 entry in assay [1], in assay [2], in assay [3], in assay [4], in assay [5] and in assay [6] was “Not Active” each time. Moreover, the concentration for half-maximal inhibition (IC50) entry in assay [7] and in assay [8] was “Not Active” throughout. For the same molecule, the Ki result in assay [1], in assay [5], in assay [6] and in assay [7] was “Not Active” in each case.

For the molecule `C=C(Cl)Cl` [1,1-DICHLOROETHENE], the 50% inhibitory concentration (IC50) result in assay [1], in assay [2], in assay [3], in assay [4], in assay [5] and in assay [6] was “Not Active” throughout. Further, the IC50 entry in assay [7] and in assay [8] was “Not Active” in each case. The inhibition constant Ki result in assay [1], in assay [5], in assay [6] and in assay [7] was “Not Active” throughout.

With `Oc1ncnc2[nH]ncc12` [ALLOPURINOL], the IC50 result in assay [1], in assay [2], in assay [3], in assay [4], in assay [5] and in assay [6] was “Not Active” each time. Moreover, the IC50 result in assay [7] and in assay [8] was “Not Active” in each case. The Ki entry in assay [1], in assay [5], in assay [6] and in assay [7] was “Not Active” throughout.

As to `O=C(O)CCc1nc(-c2ccccc2)c(-c2ccccc2)o1` [OXAPROZIN], the IC50 result in assay [1], in assay [2], in assay [3], in assay [4], in assay [5] and in assay [6] was “Not Active” throughout. The half-inhibitory concentration (IC50) entry in assay [7] and in assay [8] was “Not Active” each time. Further, the Ki entry in assay [1], in assay [5], in assay [6] and in assay [7] was “Not Active” in each case.

Consider `ClC1=C(Cl)[C@]2(Cl)[C@@H]3[C@@H]4C[C@@H]([C@H]5O[C@@H]45)[C@@H]3[C@@]1(Cl)C2(Cl)Cl` [DIELDRIN], for which the IC50 entry in assay [1], in assay [2], in assay [3], in assay [4], in assay [5] and in assay [6] was “Not Active” each time. Besides, the IC50 result in assay [7] and in assay [8] was “Not Active” each time. The Ki result in assay [1], in assay [5], in assay [6] and in assay [7] was “Not Active” throughout.

As to `CC1(COc2ccc(CC3SC(=O)NC3=O)cc2)CCCCC1` (centres undefined) [CIGLITAZONE], the 50% inhibitory concentration (IC50) result in assay [1], in assay [2], in assay [3], in assay [4], in assay [5] and in assay [6] was “Not Active” each time. Also, the concentration for half-maximal inhibition (IC50) entry in assay [7] and in assay [8] was “Not Active” in each case. Also, the Ki result in assay [1], in assay [5], in assay [6] and in assay [7] was “Not Active” each time.

Take `OC[C@H]1O[C@@H]2O[C@H]3[C@H](O)[C@@H](O)[C@@H](O[C@H]4[C@H](O)[C@@H](O)[C@@H](O[C@H]5[C@H](O)[C@@H](O)[C@@H](O[C@H]6[C@H](O)[C@@H](O)[C@@H](O[C@H]7[C@H](O)[C@@H](O)[C@@H](O[C@H]8[C@H](O)[C@@H](O)[C@@H](O[C@H]1[C@H](O)[C@H]2O)O[C@@H]8CO)O[C@@H]7CO)O[C@@H]6CO)O[C@@H]5CO)O[C@@H]4CO)O[C@@H]3CO` [BETADEX]: the 50% inhibitory concentration (IC50) result in assay [1], in assay [2], in assay [3], in assay [4], in assay [5] and in assay [6] was “Not Active” throughout. The concentration for half-maximal inhibition (IC50) entry in assay [7] and in assay [8] was “Not Active” each time. The Ki entry in assay [1], in assay [5], in assay [6] and in assay [7] was “Not Active” in each case.

`COc1ccc(Cl)cc1C(=O)NCCc1ccc(S(=O)(=O)NC(=O)NC2CCCCC2)cc1` [GLYBURIDE]: the IC50 entry in assay [1], in assay [2], in assay [3], in assay [4], in assay [5] and in assay [6] was “Not Active” throughout. In addition, the 50% inhibitory concentration (IC50) result in assay [7] and in assay [8] was “Not Active” throughout. Also, the Ki result in assay [1], in assay [5], in assay [6] and in assay [7] was “Not Active” each time.

With `COC(=O)Nc1nc2ccc(Sc3ccccc3)cc2[nH]1` [FENBENDAZOLE], the half-maximal inhibitory concentration (IC50) result in assay [1] is “Not Active”; in assay [2], “Not Active”; in assay [3], “Not Active”; in assay [4] it was “Not Active”; in assay [5], “Not Active”; in assay [6] (read-out: IC50) it was 5.99 µM. The IC50 result in assay [7] and in assay [8] was “Not Active” each time. Also, the Ki entry in assay [1], in assay [5] and in assay [7] was “Not Active” in each case.

Take `CNC[C@H](O)c1ccc(O)c(O)c1` [EPINEPHRINE]: the IC50 result is “Not Active” in assay [1]; “Not Active” in assay [2]; “Not Active” in assay [3]; “Not Active” in assay [4]; 0.232 µM in assay [5] (read-out: IC50); “Not Active” in assay [6]. In addition, the IC50 entry in assay [7] and in assay [8] was “Not Active” in each case. The Ki result in assay [1] is “Not Active”; in assay [5] (read-out: Ki), 0.154 µM; in assay [6] it was “Not Active”; in assay [7] it was “Not Active”.
